The values that follow come from patent US7893023B2, “Prodrugs activated by plasmin and their use in cancer chemotherapy” (priority 2000, dated 2011).

Where two headings read alike, the source gives them in different places.

The test system of one data set is OF-1 mice. Particulars: obtained under the same conditions, known value; cited from earlier work.
Data set [1] relates to LS174T colon tumor xenografts. The experiment in a line: Chemotherapeutic activity in the LS174T human colon tumor xenograft model. It is filed as in vivo, mice. An excerpt:
Animals were kept under pathogen-free conditions with food and water supplied ad libitum, and kept for about one week before implantation of the tumors. Fragments (˜2 mm) of tumors grown in nude mice were implanted subcutaneously in both flanks of the mice. Tumors were generally allowed to grow to attain a diameter of 5-6 mm each (approximately two weeks).
The mice weighed 20.0-25.0 g at the beginning of the study. They were selected and assigned to groups in order to have equally distributed tumor volumes in the different groups. In each group, mice were labeled individually. Treatments were assigned randomly to those groups.
All dosing solutions were prepared the day of injection by dissolution in water ( 1/10 of the expected final volume) and further dilution with 0.9% (w/v) NaCl. The concentration of these solutions was checked (A475 nm determination) after sterilization by filtration (0.22 μm) and adjusted to the final required value using sterile 0.9% (w/v) NaCl).
Treatments were administered by the i.p. route. The mice received a constant volume (10 μl/g) of either saline (control group) or drug. Mortality and clinical signs were recorded up to 4 hours post-treatment on dosing days, and daily thereafter. Their behavior was equally noted. Individual body weights were generally recorded daily until day 14 and at least twice a week thereafter.
Tumor growth was monitored by two-dimensional measurements using calipers and a precision of 0.5 mm. Tumor volumes were calculated according to the following formula: Vt=[length×(width)^2]/2
Median relative tumor volumes (RTV) were calculated as tumor volumes determined at individual days divided by tumor volumes on day 0. For treated groups, growth inhibition was estimated as the percentage ratio of median RTV of treated (T) mice versus controls (C) on each day of tumor treatment. T/C(%)=[Median RTV(treated group)/Median RTV(control group)]×100
The minimal T/C value (%) for each treatment was used as a parameter for maximum efficacy. Duration of growth inhibition was assessed by considering growth delays (T-C) for one (200%) and two (400%) doublings of the median RTV).
To determine the statistical significance of any difference in median RTV between two groups, the Mann-Whitney test was used. The test was conducted at a p level of 0.05 (two tailed) using the GraphPad Prism 3.00 software.
Female Swiss nude mice were 5 weeks old upon delivery (See General Methods, Section O). They were kept under pathogen-free conditions with food and water supplied ad libitum, and kept for about one week before implantation of the tumors. Fragments (˜2 mm) of LS174T tumors grown in nude mice were implanted subcutaneously in both flanks of the mice used in the study. Tumors were left to grow for 17 days. At that time, the mice weighed about 20.5-26.5 g.
Mice were then selected and assigned to groups in order to have equally distributed tumor volumes in different groups (5-6 mice, 9-10 tumors/group). The dose levels of Compound II, DOX used in the study, were selected on the basis of a lethality study previously conducted on OF-1 normal mice. The dose of DOX was based on previous chemotherapy experiments performed in nude mice with the same dosing schedule.
Treatments were administered by the i.p. route on days 0, 1, 2, 3 and 4, the mice receiving a constant volume (10 μl/g) of either saline or the different dosing solutions. DOX was used at 3.8 μmol/kg, Compound II, DOX was used at 25.9 μmol/kg and 34.5 μmol/kg. Clinical signs (recorded 0.5, 1, 2 and 4 hours after dosing and daily between dosing days) and body weights (recorded on each day of tumor measurement) were used to assess treatment toxicity, tumor growth was monitored on days 7, 12, 15, 19, 22, 26, 29, 33 and 36 by two-dimensional measurements using calipers and a precision of 0.5 mm.
A general note: In xenograft studies the graft and the host belong to different species.

[2] abbreviates: DOX 3.8 μmol/kg, Compound II, DOX lower dosage 25.9 μmol/kg, i.p. days 0-4.

Experimental for B16-B16 murine melanoma: Male C57-B16 black mice were 5 weeks old upon delivery. The body weight of the animals was approximately 20 g at the beginning of the test (See General Methods, Section O).
The animals were divided in eight groups (5 mice per group). Confluent murine melanoma B16-B16 cells (See General Methods, Section E.) were washed twice with PBS and EDTA (See General Methods, Section F.) twice and detached with trypsin (2 min incubation at 37° C.), that was thereafter neutralized by DMEM-F12 (containing 10% of calf serum). The cells were centrifuged for 5 min at 300 g. The pellet was resuspended twice in the DMEM-F12 without serum and centrifuged 5 min at 300 g.
The number of cells per ml of DMEM-F12 was then estimated (Brucker chamber) and the dilution of 2.5×10^5 cells/ml prepared. Each animal received 200 μl of this suspension (5.0×10^4 cells) in its tail vein. The day of injection was considered day 0 of the study. […] Animals were weighed on days 0, 1, 3, 6, 8 and 14. Their behavior and eventual clinical signs were also noted. All animals were sacrificed on day 14 and autopsied.
The lung lobes were fixed in a Bouin's solution (picric acid: formaldehyde, 40%: acetic acid, 15:5:1, v/v). Every lobe immersed in the fixing solution in a Petri flask was uniformly lighted against an opaque black background. Pictures of the front and back side of every lobe were taken with the help of a light microscope, scanned and digitized. The relative surface occupied by B116-B16 colonies was then estimated with the Scion Image Program.
The individual mean values were analyzed with the Scheffe's F-test to evaluate the statistical significance of differences observed between the groups.

For the compound `COc1cccc2c1C(=O)c1c(O)c3c(c(O)c1C2=O)C[C@@](O)(C(=O)CO)C[C@@H]3O[C@H]1C[C@H](N)[C@H](O)[C@H](C)O1` [DOX, Doxorubicin], the “lung surface occupied by B16-B16 metastases” value in the data set with B16-B16 murine melanoma (5.2 μmol/kg i.p. days 1 and 3, day 14) is 44.0±6.3%. In addition, the “mean body weight, % of initial” value in the data set on B16-B16 murine melanoma (5.2 μmol/kg, day 14) is listed as 104.7%. In addition, in the data set on B16-B16 murine melanoma (8.6 μmol/kg i.p. days 1 and 3, day 14), the “lung surface occupied by B16-B16 metastases” value was found to be 23.4±5.7%. Besides, the “mean body weight, % of initial” value in the data set with B16-B16 murine melanoma (8.6 μmol/kg, end of study) worked out at 110%. For the same compound, the “activity on lung metastases” value with B16-B16 murine melanoma (5.2 and 8.6 μmol/kg) was “did not show any significant activity”. Besides, the LD50 (as a rule, the dose at which mortality reaches 50%) with OF-1 mice was 4.1 µmol/kg. Further, in data set [1] (DOX 3.8 μmol/kg i.p. days 0-4), the antitumor activity entry is “total lack of activity” and the tumor regression entry is reported as “No tumor regression”. Besides, in data set [1] (setting [2]), the treatment-related mortality result is given as “No treatment-related mortality” and the weight loss result was “no significant weight loss”.
